From patent US20230398126A1 (priority 2022, published 2023)

Tests used:
[1] = in vitro; settings: African green monkey
[2] = tested on: MP12 virus; experiment: microbe, parasite or virus in culture; format: cell-based; settings: Rift Valley fever virus, Vero C1008
[3] = tested on: virulent RVFVs; settings: cited from earlier work
[4] = tested on: MP12 vaccine and its divergents; settings: cited from earlier work

SMILES: Cc1cc(C)c(C)c(S(=O)(=O)N2CCC(c3c[nH]c4c(C)cccc34)CC2)c1C [WMA-RV5]
- CC50 [1]: > 1280 µM
- EC50 [2]: 9.14 µM

SMILES: CC(Cl)C(=O)N1CCCN(c2nc3ccccc3nc2-c2ccccc2)CC1 (centres unmarked) [WMA-RV3]
- CC50 [1]: 363 µM
- EC50 [2]: 2.08 µM

SMILES: O=c1cnn([C@@H]2O[C@H](CO)[C@@H](O)[C@H]2O)c(=O)[nH]1 [Compound 6-azauridine, 6-azauridine]
- antiviral activity on tested virulent RVFVs [3]: antiviral activity
- inhibition of MP12 vaccine and its divergents [4]: inhibited

SMILES: Cc1ccccc1CN1CCCN(c2cccc(NC(=O)c3cccs3)c2)C1=O [WMA-RV7]
- CC50 [1]: > 1280 µM
- EC50 [2]: 15.5 µM

SMILES: Cc1ccc(CN2CCCN(c3ccc(NC(=O)c4ccccc4C)cn3)CC2)cc1 [WMA-RV6]
- CC50 [1]: 692 µM
- EC50 [2]: 1.03 µM

SMILES: Cc1nn(-c2ccccc2)c2sc(C(=O)NC(C)C)cc12 [WMA-RV8]
- CC50 [1]: > 1280 µM
- EC50 [2]: 13 µM

SMILES: CN1C(=O)c2cccnc2Sc2cc(C(=O)Nc3ccc(Cl)cc3)ccc21 [WMA-RV1]
- CC50 [1]: 320 µM
- EC50 [2]: 0.863 µM

SMILES: NC(=O)c1ncn([C@@H]2O[C@H](CO)[C@@H](O)[C@H]2O)n1 [Ribavirin]
- antiviral activity on tested virulent RVFVs [3]: antiviral activity
- inhibition of MP12 vaccine and its divergents [4]: inhibited

SMILES: CC(Cl)C(=O)N1CCN(c2nccc(-c3ccc(C(C)(C)C)cc3)n2)CC1 (centres unmarked) [WMA-RV4]
- CC50 [1]: 168 µM
- EC50 [2]: 3.19 µM

SMILES: NC(=O)c1ccc2c(c1)n(Cc1cccc(F)c1)c(=O)c1ccnn12 [WMA-RV2]
- CC50 [1]: > 1280 µM
- EC50 [2]: 6.96 µM
